Data reported in patent US6511811B1, “Protein kinase C antagonist related to insulin receptor” (The Regents of the University of California, priority 1995, dated 2003).
Ends that are not written are not given here.

Columns and labels:
[1] = tested on: HIRcB cells; assay: Insulin-stimulated DNA synthesis (BrDU incorporation) with PKC inhibitors; format: cell-based, Rat; conditions: microinjection of the inhibitor peptide, high glucose 25 mM; FIG. 11
Protocol: HIRcB or ΔCT cells were cultured on acid-washed glass coverslips, grown to semi-confluence, and then starved in serum-free DME with 1 mM glucose. The peptide was dissolved in microinjection buffer containing 5 mM NaPO4 and 100 mM KCl, pH 7.4. The cells were microinjected with the PKC inhibitor peptide using glass capillary needles. Approximately 10 femtoliters of this solution was introduced into each cell. The injection included 1×10^6 molecules of IgG as marker for microinjection.
Two hours after microinjection, cells were incubated with BrDU plus various concentrations of growth factors for 16 h at 37° C. The cells were fixed with acid alcohol (90% ethanol, 5% acetic acid) for 20 min at 22° C., and then incubated with mouse monoclonal anti-BrDU antibody for 1 h at 22° C. […] After coverslips were mounted, the cells were analyzed and photographed with an Axiophot fluorescence microscope (Zeiss). […]
The effects of high glucose upon insulin-induced DNA synthesis were examined by first exposing cells to high glucose for 1 h, and then to insulin and BrDU for an additional 18 h. High glucose decreased DNA synthesis in insulin-stimulated cells by 30%, as measured by BrDU incorporation (FIG. 10).

[2] = tested on: insulin receptor; assay: 32P labelling and two-dimensional tryptic phosphopeptide analysis of insulin receptor; format: cell-based, human; conditions: stimulation of 32P-labelled HIRcB cells; FIG. 8
Protocol: HIRcB cells were serum-starved for 16 h and then incubated in phosphate-free DMEM containing 2 mCi/ml ^32P-orthophosphate for 3 h. The cells were then stimulated with high glucose (25 mM) or insulin as indicated. The cells were lysed, and the insulin receptor was immunoprecipitated using […] antibody 83-14 as described. The washed immunoprecipitates were analyzed by SDS electrophoresis. The labeled β-subunit was visualized by autoradiography, excised from the gels and recovered by electroelution.
Polyacrylamide-gel pieces containing ^32P-labeled IR and IRS-1 following in vitro phosphorylation were electroeluted in 20 mM Tris-HCl, pH 8.0, 2 mM EDTA, 0.1% SDS, and 0.1% 2-mercaptoethanol for 4 h. Eluted protein was precipitated with four volumes of acetone at −80° C. for 60 min followed by centrifugation at room temperature for 10 min at 10,000 g. The pellet was dried and digested with 10 μg of TPCK-treated trypsin (Worthington Diagnostic Systems, Freehold, N.J.) in 100 μl of 100 mM N-ethylmorpholine acetate (NMA), pH 8.2, for 24 h at 37° C. A further 10 μg of TPCK-treated trypsin was added and digestion continued for 12 h. The peptides were lyophilized, resuspended with water, and re-lyophilized at least three times. The ^32P-labeled tryptic peptides were then resuspended in 5 μl of electrophoresis buffer and spotted onto thin layer cellulose plates. […]

[3] = tested on: insulin receptor kinase activity; conditions: incubation of cells with the inhibitor; Mosthaf et al.; cited from earlier work
[4] = tested on: HIRcB cells; assay: Microinjection of insulin receptor-derived peptides, insulin-stimulated DNA synthesis (BrDU incorporation); format: cell-based, Rat; conditions: FIG. 13; for Insulin-stimulated DNA synthesis: high glucose (25 mM); for Insulin-stimulated DNA synthesis / DNA synthesis in insulin-stimulated cells: peptide 10 mM microinjected, 100 ng/ml insulin; for DNA synthesis in insulin-stimulated cells: normal glucose (5 mM)
Protocol: HIRcB cells were grown to sub-confluence on glass coverslips in D-MEM medium containing normal (5 mM) or high (25 mM) glucose and rendered quiescent by serum deprivation for 24 h. Synthetic cyclo-peptides were derived from the human insulin receptor, containing sequence […] (SEQ ID NO:5) (Serine-1035) and […] (SEQ ID NO:1) (Serine-1270) were synthesized using methods well known in the art. The peptides were dissolved in microinjection buffer containing 5 mM NaPO4 and 100 mM KCl, pH 7.2, to a final concentration of 10 mM. All microinjected reagents contained rabbit IgG (5 mg/ml) to allow the identification […] cells. Samples were microinjected into the cell cytoplasm using an automated microinjection system at a typical needle pressure of about 100 hectopascals resulting in the introduction of 10^5 molecules of IgG.
Approximately 1 h after microinjection, the cells were stimulated with 100 ng/ml insulin and […] BrDU was added. Cells were incubated at 37° C. for an additional 16 h, and then fixed and stained using a monoclonal anti-BrDU antibody. Injected cells were identified with fluorescein isothiocyanate-conjugated donkey anti-rabbit IgG. Nuclear BrDU incorporation was detected with tetramethylrhodamine isothiocyanate-conjugated donkey anti-mouse IgG. The cells were analyzed by fluorescence microscopy.

Compound	Effect on hyperglycemia-induced inhibition of insulin receptor kinase activity [3]	Insulin-stimulated DNA synthesis [4]	DNA synthesis in insulin-stimulated cells [4]	also measured
RFARKGALRQKNV [peptide 19-31]				Reversal of high glucose inhibition of insulin-stimulated DNA synthesis (BrDU incorporation) [1]: partially reversed inhibition of DNA synthesis
CCCCCCCCCCCCCC(=O)O[C@@H]1[C@@H](C)[C@@]2(O)[C@@H](C=C(CO)C[C@]3(O)C(=O)C(C)=C[C@@H]23)[C@@H]2C(C)(C)[C@]12OC(C)=O [Phorbol ester]				Increase of insulin receptor phosphorylation [2]: 1.5 fold
polymyxin B	is inhibited			
DDLHPSFPEVS (also: cyclized; listed as Homo sapiens) [Ser-1270]		significantly increased insulin-stimulated DNA synthesis	slightly increased DNA synthesis	Increase in DNA synthesis compared between the two injected peptides ([4]; normal and high glucose, in each instance): greater than in Ser-1035 peptide-injected cells
KTVNESASLRE (also: cyclized; listed as Homo sapiens) [Ser-1035]		significantly increased insulin-stimulated DNA synthesis	slightly increased DNA synthesis	
CC1CNCCN1S(=O)(=O)c1cccc2cnccc12 (stereo not drawn) [H7]	is inhibited			
